Assay results published in US20120122931A1, “INDOLE DERIVATIVE OR PHARMACEUTICALLY ACCEPTABLE SALT THEREOF” (KISSEI PHARMACEUTICAL CO., LTD., priority 2009, published 2012).

What was measured:
[1] = test system: sulprostone-induced bladder contraction; assay: Inhibitory effect of compound on sulprostone-induced bladder contraction; type: in vivo; conditions: test agent 1.0 mg/kg intravenously, sulprostone 0.3 mg/kg subcutaneously, female SD rats
Description: Female SD rats were used. Under urethane anesthesia (1.25 g/kg, administered subcutaneously), a tracheal cannula (Size 8, HIBIKI) and a femoral vein cannula for administration (23G needle-equipped PESO) were inserted thereinto. The bladder cannula (PESO) was inserted from the bladder apex. The bladder cannula was connected to a three-way stopcock, and then, one was connected to a pressure transducer and the other was connected to a syringe filled with saline. Saline was injected to the bladder at an injection rate of 3.6 mL/hour and the bladder contraction pressure was recorded at the time of injection with a recorder (RECTI-HORITZ-8K, NEC Corporation). After 10 minutes from stabilization of the bladder contraction pressure during urination, sulprostone was administered subcutaneously (0.3 mg/kg). Then, at the time point when the bladder contraction pressure became constant, a test agent was administered intravenously (1.0 mg/kg). An average bladder contraction pressure during the 10 minutes period before administration of sulprostone was taken as a baseline (0%). Further, an average bladder contraction pressure during the 10 minutes period before administration of the test agent was taken as a maximum bladder contraction pressure (100%). […] The ratio of this measured value to the maximum bladder contraction pressure was calculated by the following equation and taken as an average bladder contraction rate after administration of the test agent: (Average Bladder Contraction Rate after Administration of Test Agent (%))=(Average Bladder Contraction Pressure after Administration of Test Agent)/(Maximum Bladder Contraction Pressure). In addition, the difference between the maximum bladder contraction rate (100%) and the average bladder contraction rate (%) after administration of the test agent was calculated by the following equation and taken as a bladder contraction inhibition rate of the test agent: (Bladder Contraction Inhibition Rate)=100%−(Average Bladder Contraction Rate after Administration of Test Agent (%)).

rat EP1 receptor = molecular target: T1, rat EP1 receptor (Rattus norvegicus, UniProt P70597); assay: Test for confirmation of EP1 receptor antagonism: inhibition of prostaglandin E2-induced increase in intracellular calcium concentration (Method A or Method B); type: cell-based; conditions: rat EP1 receptor-expressing cells, prostaglandin E2 10 nM
T1 construct: expressed in transfected cells; host or cells: COS-1 cells, transient transfection with Lipofectamine 2000
T1 sequence (P70597 1-405): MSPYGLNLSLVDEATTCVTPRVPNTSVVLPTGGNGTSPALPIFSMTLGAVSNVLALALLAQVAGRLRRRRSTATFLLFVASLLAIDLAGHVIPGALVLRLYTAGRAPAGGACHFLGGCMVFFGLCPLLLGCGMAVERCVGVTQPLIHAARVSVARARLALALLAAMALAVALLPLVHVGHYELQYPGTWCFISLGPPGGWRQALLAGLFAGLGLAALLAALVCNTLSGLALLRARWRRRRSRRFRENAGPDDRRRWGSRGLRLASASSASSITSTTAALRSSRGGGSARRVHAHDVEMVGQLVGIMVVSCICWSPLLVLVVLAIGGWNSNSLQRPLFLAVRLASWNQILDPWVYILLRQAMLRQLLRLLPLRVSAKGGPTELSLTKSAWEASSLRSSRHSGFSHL
Summary of the method: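 Rat EP1 (NM_013100-matching clone) transiently expressed in COS-1 cells via Lipofectamine 2000, 200 ng vector/well, transfected about 2 h after seeding at 5×10^4 cells/well. Cells cultured at 37° C, 5% CO2.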

[2] = Method A (Fluo-4 NW, FlexStation)

SMILES	IC50 (rat EP1 receptor; [2]) [nM]	IC50 (rat EP1 receptor; Method B (Calcium kit II Fluo 4, FDSS 7000)) [nM]	Bladder Contraction Inhibition Rate (%) 15 Minutes [1] [%]	Bladder Contraction Inhibition Rate (%) [1] [%]
COc1ccc2c(Cc3cccc(C(=O)O)n3)c(-c3ccccc3)[nH]c2c1 [Example 4-1, 6-(6-methoxy-2-phenyl-1H-indol-3-ylmethyl)pyridine-2-carboxylic acid]	10		90.1	94.2
COc1ccc2c(Cc3cccc(C(=O)O)c3)c(-c3ccccc3)[nH]c2c1 [Example 4-2, 3-(6-methoxy-2-phenyl-1H-indol-3-ylmethyl)benzoic acid]	32		78.3	80.4

Further lines, with some results ahead:

IC50 (rat EP1 receptor; [2]) [nM]	IC50 (rat EP1 receptor; Method B (Calcium kit II Fluo 4, FDSS 7000)) [nM]	SMILES	Bladder Contraction Inhibition Rate (%) 15 Minutes [1] [%]	Bladder Contraction Inhibition Rate (%) [1] [%]
11		COc1ccc2c(Cc3cccc(C(=O)O)n3)c(-c3ccsc3)[nH]c2c1 [Example 11-1, 6-(6-methoxy-2-thiophen-3-yl-1H-indol-3-ylmethyl)pyridine-2-carboxylic acid]	86.1	76.8
	14	COc1ccc2c(Cc3cccc(C(=O)O)n3)c(-c3cccc(F)c3)[nH]c2c1 [Example 11-5, 6-[2-(3-fluorophenyl)-6-methoxy-1H-indol-3-ylmethyl]pyridine-2-carboxylic acid]	79.7	81.9
26		COc1ccc2c(Cc3cccc(C(=O)O)n3)c(-c3csc(C)c3)[nH]c2c1 [Example 11-20, 6-[6-methoxy-2-(5-methylthiophen-3-yl)-1H-indol-3-ylmethyl]pyridine-2-carboxylic acid]	81.4	82.9
